Assay results as given in article PMC4207403, “Docking Studies and Biological Activity of Fosinopril Analogs” (International Journal of Medicinal Chemistry, 2014).

Experiments:
ACE = conditions: background statement; cited from earlier work
[1] = background statement; cited from earlier work
[2] = target: T1, angiotensin-I converting enzyme (ACE) (Rattus norvegicus, UniProt P47820); assay: In vitro angiotensin-I converting enzyme inhibitory activity, spectrophotometric assay with rat lung extract; assay type: biochemical; conditions: for inhibition at 0.0002 µM: 0.2 nM; for inhibition at 0.0004 µM: 0.4 nM; for inhibition at 0.0006 µM: 0.6 nM; for inhibition at 0.0008 µM: 0.8 nM; for inhibition at 0.001 µM: 1 nM; for IC50: ACE inhibition, rat lung extract
T1 construct: The reaction was started by the addition of 40 μL rat lung extract; from tissue; host or cells: rat lung extract
T1 sequence (P47820 36-1313): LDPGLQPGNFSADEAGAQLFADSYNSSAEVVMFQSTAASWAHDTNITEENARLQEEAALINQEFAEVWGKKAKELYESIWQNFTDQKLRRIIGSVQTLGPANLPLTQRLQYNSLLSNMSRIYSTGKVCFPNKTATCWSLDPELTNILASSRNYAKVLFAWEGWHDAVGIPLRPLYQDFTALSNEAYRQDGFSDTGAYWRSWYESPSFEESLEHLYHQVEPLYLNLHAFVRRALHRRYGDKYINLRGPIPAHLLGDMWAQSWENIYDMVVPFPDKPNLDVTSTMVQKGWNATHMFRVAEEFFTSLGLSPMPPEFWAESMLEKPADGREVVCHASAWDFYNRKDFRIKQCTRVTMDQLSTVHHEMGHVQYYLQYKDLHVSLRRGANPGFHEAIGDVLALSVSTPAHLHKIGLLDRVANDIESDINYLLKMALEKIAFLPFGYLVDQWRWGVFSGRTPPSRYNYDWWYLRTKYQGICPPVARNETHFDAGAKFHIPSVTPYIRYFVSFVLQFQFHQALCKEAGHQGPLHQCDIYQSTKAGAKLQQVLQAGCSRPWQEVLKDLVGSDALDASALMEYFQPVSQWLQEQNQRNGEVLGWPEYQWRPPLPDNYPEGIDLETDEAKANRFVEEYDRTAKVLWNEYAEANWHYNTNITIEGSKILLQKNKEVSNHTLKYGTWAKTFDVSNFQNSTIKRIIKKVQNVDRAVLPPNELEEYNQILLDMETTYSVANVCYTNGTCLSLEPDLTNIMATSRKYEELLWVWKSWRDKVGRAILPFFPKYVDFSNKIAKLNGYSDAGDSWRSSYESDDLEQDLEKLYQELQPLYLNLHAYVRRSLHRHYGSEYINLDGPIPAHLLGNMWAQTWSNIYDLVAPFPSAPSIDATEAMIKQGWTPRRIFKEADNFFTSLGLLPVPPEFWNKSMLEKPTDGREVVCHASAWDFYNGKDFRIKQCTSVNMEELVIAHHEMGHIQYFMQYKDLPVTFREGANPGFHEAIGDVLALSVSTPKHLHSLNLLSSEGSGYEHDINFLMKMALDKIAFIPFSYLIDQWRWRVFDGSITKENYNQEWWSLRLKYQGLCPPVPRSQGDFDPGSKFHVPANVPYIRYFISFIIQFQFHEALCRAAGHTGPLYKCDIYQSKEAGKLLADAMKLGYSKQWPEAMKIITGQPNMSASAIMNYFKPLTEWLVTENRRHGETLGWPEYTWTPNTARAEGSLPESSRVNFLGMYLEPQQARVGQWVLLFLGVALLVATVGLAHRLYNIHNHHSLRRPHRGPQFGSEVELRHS
Description: This method is based on the cleavage of the substrate hippuryl-glycyl-glycine by ACE and subsequent reaction with trinitrobenzenesulfonic acid to form 2,4,6-trinitrophenyl-glycyl-glycine. The method relies on spectrophotometric determination of hippuric acid. It involves a colorimetric reaction of hippuric acid with benzene sulfonyl chloride.
The assay system consisted of 200 μL of substrate solution, water, and drug solution in a volume of 0.25 mL. The reaction was started by the addition of 40 μL rat lung extract. After 30 minutes of incubation at 37°C, the reaction was stopped by adding 2 mL of stop solution (1.195 g HEPES and 0.0465 g of EDTA were dissolved in 40 mL distilled water. The pH was adjusted to 9.0 with 1 mol/lit sodium hydroxide and diluted to 50 mL with distilled water). Then 0.5 mL distilled water and 1.0 mL colour reagent were added, mixed vigorously, left for 5 min, and centrifuged at 3000–4000 rpm for 10 minutes at room temperature to remove any precipitate. The corresponding enzyme inhibitors blanks were assayed in the same manner except for adding the stop solution before the lung extract. The absorbance of the yellow product of the reaction between liberated hippurate and cyanuric chloride was measured spectrophotometrically at 405 nm against distilled water as blank.Controls without drug were run simultaneously in all cases. “One inhibitory unit is the amount of inhibitor that suppressed the ACE activity by one unit.”

[3] = read-out: Percent inhibition of ACE

Row | inhibition at 10 pM ([2]; 0.01 nM, read-out: Percent inhibition of ACE) | inhibition at 20 pM ([2]; 0.02 nM, read-out: Percent inhibition of ACE) | inhibition at 0.0002 µM [2, 3] | inhibition at 0.0004 µM [2, 3] | inhibition at 0.0006 µM [2, 3] | inhibition at 0.0008 µM [2, 3] | inhibition at 0.001 µM [2, 3] | IC50 [2] | ACE inhibition activity, in words ([2]; compared with other analogs and Fosinopril) | inhibition at 0.0001 µM ([2]; 0.1 nM, read-out: Percent inhibition of ACE) | Compound | Potency relative to other ACE inhibitors (ACE) | Bioavailability [1]
1 |  |  |  |  |  |  |  |  |  |  | O=C(O)[C@@H]1C[C@@H](C2CCCCC2)CN1C(=O)CP(=O)(O)CCCCc1ccccc1 [Fosinoprilat] | more potent than captopril but less potent than enalaprilat | poor bioavailability
2 | 44.7 ± 3.85% | 53.2 ± 5.73% | 75.1 ± 4.66% | 77.8 ± 3.21% | 81.7 ± 6.09% | 84 ± 5.11% | 84.5 ± 4.52% | 0.017 ± 0.009 nM | highest ACE inhibition activity |  | O=C(O)C1Cc2ccccc2CN1C(=O)CP(=O)(O)CCCCc1ccccc1 (stereo not shown) [Analog A2] |  | 
3 |  |  | 63 ± 6.01% | 68.7 ± 3.99% | 73 ± 4.76% | 88.2 ± 5.2% | 89.1 ± 3.82% | 0.143 ± 0.012 nM |  | 44.1 ± 4.35% | CCC(=O)O[C@@H](O[P@](=O)(CCCCc1ccccc1)CC(=O)N1C[C@H](C2CCCCC2)C[C@H]1C(=O)O)C(C)C [Fosinopril] |  | 
4 |  |  |  |  |  |  |  |  |  |  | C[C@H](N[C@@H](CCc1ccccc1)C(=O)O)C(=O)N1CCC[C@H]1C(=O)O [enalaprilat] |  | poor bioavailability
